According to US11091463B2, “Amide-substituted pyridinyltriazole derivatives and uses thereof” (BAYER PHARMA AKTIENGESELLSCHAFT, priority 2016, dated 2021):

Tests used:
[1] = target: T1, human V1a receptor (Homo sapiens, UniProt P37288); test: Cellular in vitro assay for vasopressin receptor activity, V1a receptor cell line (photoprotein luminescence); format: cell-based; conditions: Table 1A, compounds of the invention; for ratio IC50 hV2/hV1a: selectivity ratio
T1 construct: expressed in transfected cells; host or cells: CHO K1 (ATCC), also stably transfected with a modified aequorin
Protocol: (§1) B-1. Cellular In Vitro Assay for Determining Vasopressin Receptor Activity
The identification of agonists and antagonists of the V1a and V2 vasopressin receptors from humans, rats and dogs as well as the quantification of the activity of the compounds of the invention is carried out using recombinant cell lines. These cell lines originally derive from a hamster's ovary epithelial cell (Chinese Hamster Ovary, CHO K1, ATCC: American Type Culture Collection, Manassas, Va. 20108, USA). The test cell lines constitutively express the human, rat or dog V1a or V2 receptors. In case of the Gαq-coupled V1a receptors, cells are also stably transfected with a modified form of the calcium-sensitive photoproteins aequorin (human and rat V1a) or obelin (dog V1a), which, after reconstitution with the cofactor coelenterazine, emit light when there are increases in free calcium concentrations [Rizzuto R, Simpson A W, Brini M, Pozzan T, Nature, 358, 325-327 (1992); Illarionov B A, Bondar V S, Illarionova V A, Vysotski E S, Gene, 153 (2), 273-274 (1995)]. The resulting vasopressin receptor cells react to stimulation of the recombinantly expressed V1a receptors by intracellular release of calcium ions, which can be quantified by the resulting photoprotein luminescence. The Gs-coupled V2 receptors are stably transfected into cell lines expressing the gene for firefly luciferase under control of a CRE-responsible promoter. Activation of V2 receptors induces the activation of the CRE-responsive promoter via cAMP increase, thereby inducing the expression of firefly luciferase. The light emitted by photoproteins of V1a cell lines as well as the light emitted by firefly luciferase of V2 cell lines corresponds to the activation or inhibition of the respective vasopressin receptor. The bioluminescence of the cell lines is detected using a suitable luminometer [Milligan G, Marshall F, Rees S, Trends in Pharmacological Sciences, 17, 235-237 (1996)].
Vasopressin V1a Receptor Cell Lines:
On the day before the assay, the cells are plated out in culture medium (DMEM/F12, 2% FCS, 2 mM glutamine, 10 mM HEPES, 5 μg/ml coelenterazine) in 384-well microtiter plates and kept in a cell incubator (96% humidity, 5% v/v CO2, 37° C.). On the day of the assay, test compounds in various concentrations are placed for 10 minutes in the wells of the microtiter plate before the agonist [Arg^8]-vasopressin at EC50 concentration is added. The resulting light signal is measured immediately in a luminometer.
Table 1A below lists individual IC50 values for the compounds of the invention (including racemic mixtures as well as separated enantiomers) that were obtained from cell lines transfected with the human V1a or V2 receptor: […]

[2] = target: T2, human V2 receptor (Homo sapiens, UniProt P30518); test: Cellular in vitro assay for vasopressin receptor activity, V2 receptor cell line (CRE-luciferase); format: cell-based; conditions: Table 1A; compounds of the invention; CHO cell line transfected with human V2 receptor, [Arg8]-vasopressin at EC50; read-out: IC50 hV2
T2 construct: expressed in transfected cells; host or cells: CHO K1 (ATCC) line expressing firefly luciferase under a CRE-responsive promoter
Protocol: as §1
The identification of agonists and antagonists of the V1a and V2 vasopressin receptors from humans, rats and dogs as well as the quantification of the activity of the compounds of the invention is carried out using recombinant cell lines. These cell lines originally derive from a hamster's ovary epithelial cell (Chinese Hamster Ovary, CHO K1, ATCC: American Type Culture Collection, Manassas, Va. 20108, USA). The test cell lines constitutively express the human, rat or dog V1a or V2 receptors. […] The resulting vasopressin receptor cells react to stimulation of the recombinantly expressed V1a receptors by intracellular release of calcium ions, which can be quantified by the resulting photoprotein luminescence. […] The bioluminescence of the cell lines is detected using a suitable luminometer [Milligan G, Marshall F, Rees S, Trends in Pharmacological Sciences, 17, 235-237 (1996)]. […]
On the day before the assay, the cells are plated out in culture medium (DMEM/F12, 2% FCS, 2 mM glutamine, 10 mM HEPES) in 384-well microtiter plates and kept in a cell incubator (96% humidity, 5% v/v CO2, 37° C.). […] Upon addition of the cell lysis reagent Triton™ and the substrate luciferin, luminescence of firefly luciferase is measured in a luminometer. […]

T1 sequence (P37288 whole entry): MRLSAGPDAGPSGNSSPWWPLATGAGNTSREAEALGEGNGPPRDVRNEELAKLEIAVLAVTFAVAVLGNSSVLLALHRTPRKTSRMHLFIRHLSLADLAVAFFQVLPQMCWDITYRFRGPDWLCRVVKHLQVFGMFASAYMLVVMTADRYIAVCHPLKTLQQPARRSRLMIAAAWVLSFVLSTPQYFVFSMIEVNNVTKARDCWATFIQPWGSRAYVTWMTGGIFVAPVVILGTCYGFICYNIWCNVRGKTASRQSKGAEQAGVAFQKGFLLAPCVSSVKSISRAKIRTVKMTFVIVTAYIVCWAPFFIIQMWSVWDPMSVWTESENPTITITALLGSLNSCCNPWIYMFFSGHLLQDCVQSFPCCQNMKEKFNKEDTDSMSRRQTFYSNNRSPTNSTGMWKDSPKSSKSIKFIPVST
T2 sequence (P30518 whole entry): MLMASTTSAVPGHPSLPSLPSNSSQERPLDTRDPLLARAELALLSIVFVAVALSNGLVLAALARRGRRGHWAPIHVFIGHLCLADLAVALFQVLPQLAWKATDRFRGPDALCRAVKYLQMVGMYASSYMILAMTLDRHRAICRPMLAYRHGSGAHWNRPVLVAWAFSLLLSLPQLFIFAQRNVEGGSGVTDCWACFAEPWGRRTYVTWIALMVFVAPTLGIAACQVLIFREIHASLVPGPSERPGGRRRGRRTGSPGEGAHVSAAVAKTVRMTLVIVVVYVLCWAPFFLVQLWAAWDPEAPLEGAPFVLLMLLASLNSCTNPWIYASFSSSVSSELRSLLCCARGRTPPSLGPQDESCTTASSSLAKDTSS

| SMILES | ratio IC50 hV2/hV1a [1] | IC50 [2] [nM] | IC50 ([1]; CHO cell line transfected with human V1a receptor, [Arg8]-vasopressin at EC50, read-out: IC50 hV1a) [nM] |
| --- | --- | --- | --- |
| NC(=O)c1nc(Cn2nc(-c3ccc(Cl)cc3)n(C[C@@H](O)C(F)(F)F)c2=O)nn1-c1ncccc1Cl [Example 10, 3-({3-(4-Chlorophenyl)-5-oxo-4-[(2R)-3,3,3-trifluoro-2-hydroxypropyl]-4,5-dihydro-1H-1,2,4-triazol-1-yl}methyl)-1-(3-chloropyridin-2-yl)-1H-1,2,4-triazole-5-carboxamide] | 116.2 |  |  |
| NC(=O)c1nc(Cn2nc(-c3ccc(Cl)cc3)n(C[C@@H](O)C(F)(F)F)c2=O)nn1-c1cnccc1Cl [Example 12, 3-({3-(4-Chlorophenyl)-5-oxo-4-[(2R)-3,3,3-trifluoro-2-hydroxypropyl]-4,5-dihydro-1H-1,2,4-triazol-1-yl}methyl)-1-(4-chloropyridin-3-yl)-1H-1,2,4-triazole-5-carboxamide] | 249.3 |  |  |
| NC(=O)c1nc(Cn2nc(-c3ccc(Cl)cc3)n(CC(=O)C(F)(F)F)c2=O)nn1-c1ncccc1Cl [Example 14, 3-{[3-(4-Chlorophenyl)-5-oxo-4-(3,3,3-trifluoro-2-oxopropyl)-4,5-dihydro-1H-1,2,4-triazol-1-yl]methyl}-1-(3-chloropyridin-2-yl)-1H-1,2,4-triazole-5-carboxamide (ketone form) or 3-{[3-(4-chlorophenyl)-5-oxo-4-(3,3,3-trifluoro-2,2-dihydroxypropyl)-4,5-dihydro-1H-1,2,4-triazol-1-yl]methyl}-1-[2-(trifluoromethyl)phenyl]-1H-1,2,4-triazole-5-carboxamide (hydrate form)] | 20.0 |  |  |
| NC(=O)c1nc(Cn2nc(-c3ccc(Cl)cc3)n(CC(=O)C(F)(F)F)c2=O)nn1-c1ncccc1C(F)(F)F [Example 17, 3-{[3-(4-Chlorophenyl)-5-oxo-4-(3,3,3-trifluoro-2-oxopropyl)-4,5-dihydro-1H-1,2,4-triazol-1-yl]methyl}-1-[3-(trifluoromethyl)pyridin-2-yl]-1H-1,2,4-triazole-5-carboxamide (ketone form) or 3-{[3-(4-Chlorophenyl)-5-oxo-4-(3,3,3-trifluoro-2,2-dihydroxypropyl)-4,5-dihydro-1H-1,2,4-triazol-1-yl]methyl}-1-[3-(trifluoromethyl)pyridin-2-yl]-1H-1,2,4-triazole-5-carboxamide (hydrate form)] | 66.0 | 350 | 5.3 |

Continued, values first:

| ratio IC50 hV2/hV1a [1] | IC50 [2] [nM] | IC50 ([1]; CHO cell line transfected with human V1a receptor, [Arg8]-vasopressin at EC50, read-out: IC50 hV1a) [nM] | SMILES |
| --- | --- | --- | --- |
| 196.8 |  |  | NC(=O)c1nc(Cn2nc(-c3ccc(Cl)cc3)n(C[C@@H](O)C(F)(F)F)c2=O)nn1-c1ncccc1C(F)(F)F [Example 11, 3-({3-(4-Chlorophenyl)-5-oxo-4-[(2R)-3,3,3-trifluoro-2-hydroxypropyl]-4,5-dihydro-1H-1,2,4-triazol-1-yl}methyl)-1-[3-(trifluoromethyl)pyridin-2-yl]-1H-1,2,4-triazole-5-carboxamide] |
| 431.3 |  |  | NC(=O)c1nc(Cn2nc(-c3ccc(Cl)cc3)n(C[C@@H](O)C(F)(F)F)c2=O)nn1-c1cnccc1C(F)(F)F [Example 13, 3-({3-(4-Chlorophenyl)-5-oxo-4-[(2R)-3,3,3-trifluoro-2-hydroxypropyl]-4,5-dihydro-1H-1,2,4-triazol-1-yl}methyl)-1-[4-(trifluoromethyl)pyridin-3-yl]-1H-1,2,4-triazole-5-carboxamide] |
| 47.2 |  |  | NC(=O)c1nc(Cn2nc(-c3ccc(Cl)cc3)n(CC(=O)C(F)(F)F)c2=O)nn1-c1ncccc1Br [Example 15, 1-(3-Bromopyridin-2-yl)-3-{[3-(4-chlorophenyl)-5-oxo-4-(3,3,3-trifluoro-2-oxopropyl)-4,5-dihydro-1H-1,2,4-triazol-1-yl]methyl}-1H-1,2,4-triazole-5-carboxamide (ketone form) or 1-(3-Bromopyridin-2-yl)-3-{[3-(4-chlorophenyl)-5-oxo-4-(3,3,3-trifluoro-2,2-dihydroxypropyl)-4,5-dihydro-1H-1,2,4-triazol-1-yl]methyl}-1H-1,2,4-triazole-5-carboxamide (hydrate form)] |
| 53.6 |  |  | NC(=O)c1nc(Cn2nc(-c3ccc(Cl)cc3)n(CC(=O)C(F)(F)F)c2=O)nn1-c1cnccc1Cl [Example 16, 3-{[3-(4-Chlorophenyl)-5-oxo-4-(3,3,3-trifluoro-2-oxopropyl)-4,5-dihydro-1H-1,2,4-triazol-1-yl]methyl}-1-(4-chloropyridin-3-yl)-1H-1,2,4-triazole-5-carboxamide (ketone form) or 3-{[3-(4-Chlorophenyl)-5-oxo-4-(3,3,3-trifluoro-2,2-dihydroxypropyl)-4,5-dihydro-1H-1,2,4-triazol-1-yl]-methyl}-1-(4-chloropyridin-3-yl)-1H-1,2,4-triazole-5-carboxamide (hydrate form)] |
